Assay [1] has as its target T1, h-NTPDase1 (Homo sapiens, UniProt P49961).
T1 construct: made in house; host or cells: COS-7 cells, transient transfection; crude protein extract after sonication
T1 sequence (P49961 1-510): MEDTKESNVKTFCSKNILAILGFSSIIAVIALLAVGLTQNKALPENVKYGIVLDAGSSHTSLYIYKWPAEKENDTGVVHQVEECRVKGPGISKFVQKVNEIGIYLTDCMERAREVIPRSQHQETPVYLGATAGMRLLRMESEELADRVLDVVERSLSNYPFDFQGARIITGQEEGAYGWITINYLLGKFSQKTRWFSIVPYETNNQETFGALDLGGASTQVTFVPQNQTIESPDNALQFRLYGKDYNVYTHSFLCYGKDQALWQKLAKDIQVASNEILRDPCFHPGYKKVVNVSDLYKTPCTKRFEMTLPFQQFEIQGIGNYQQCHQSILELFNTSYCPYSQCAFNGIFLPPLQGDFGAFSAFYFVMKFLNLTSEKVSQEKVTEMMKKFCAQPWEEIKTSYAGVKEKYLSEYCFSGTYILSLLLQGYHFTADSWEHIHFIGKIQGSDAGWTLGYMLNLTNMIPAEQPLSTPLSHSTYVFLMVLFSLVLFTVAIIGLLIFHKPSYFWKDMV
Also on record: method as in Lecka et al., 2013. Conditions: selective inhibitor of h-NTPDase1; ref Lecka et al., 2013; cited from earlier work.

Assay [2] has as its system mice pancreatic islets. Description: Glucose stimulated insulin secretion in isolated mice islets (ELISA). The assay is classed as cell-based, BALB/c mice. Conditions: 16.7 mM glucose, compound 200 µM, 1 h, 37°C. The procedure:
Six to eight week old BALB/c mice, weighing 30–40 g, were used in the study. These mice were obtained from the animal house of COMSATS University Islamabad, Abbottabad Campus and placed under standard temperature (25 ± 2°C) and humidity (50–55%) conditions with an alternate 12-h light/dark cycle. All the experimental animals were provided with a continuous supply of food and water. The animals were handled according to internationally accepted guidelines of animal care and use. Moreover, this study was reviewed and approved by Research Ethics Committee, Department of Pharmacy, COMSATS University Islamabad, Abbottabad Campus. (Protocol number: PHM.Eth./CS-M01-020-1609)
The islets were isolated from mice pancreas as previously described, by a process involving collagenase digestion ([Hameed et al., 2018]). Briefly, mice were anesthetized with sodium thiopental (30 mg kg) and sacrificed by cervical dislocation to block the flow of blood. Immediately, mice were transferred to biological hood and their abdominal cavity was opened completely by making an incision on abdomen. In order to stop the bile flow toward duodenum, ampulla was located and clamped under dissection microscope. Then, distention of pancreas was carried out by injecting 3 ml of collagenase solution (1 mg/ml) through common bile duct. The distended pancreas was removed as a whole, transferred to a 50 ml tube and digested in collagenase solution at 37°C. After 15 min, digestion was stopped by placing the tube on ice and 20 ml of Hank’s Balanced Salt Solution (HBSS) was added to it. Thus the digested islets were washed with HBSS (two to three times) by centrifugation (1,000 rpm) for 1 min at 4°C. Finally, islets were purified by passing through a cell strainer (70 µm) and isolated manually (by hand picking) under stereomicroscope (Euromex, Arnhem, Netherlands). All the purification and isolation procedures were carried out in HBSS, containing no magnesium, calcium and phenol red.
Krebs-Ringer bicarbonate buffer (KRBB) was used as an incubation medium for islets and was composed of NaCl (118 mM), KCl (4.7 mM), CaCl2 (1.9 mM), MgSO4 (1.2 mM), NaHCO3 (25 mM), 4-(2-hydroxyethyl)-1-piperazineethanesulfonic acid (HEPES, 10 mM) and bovine serum albumin (0.1%). The pH of KRBB was maintained at 7.4. The isolated islets were size-matched and pre-incubated (3 islets/tube) for 45 min at 37°C in KRBB, supplemented with 3 mM glucose. Thereafter, incubation medium was replaced with fresh KRBB (containing 16.7 mM glucose) and islets were incubated for 60 min at 37°C with or without test substance(s). After incubation, supernatant was collected and stored at −40°C until further use. Finally, collected samples were properly diluted and insulin secretion was estimated with ultra-sensitive mouse insulin ELISA kit (Crystal Chem Inc., Downers Grove, United States) according to the manufacturer’s instructions. The absorbance was measured at 450 nm and insulin secretion was normalized for number of islets used. ([Hameed et al., 2018]).

On to `CCCCSc1nc2c(N)ncnc2n1[C@@H]1O[C@H](COP(=O)(O)OP(=O)(O)OP(=O)(O)O)[C@@H](O)[C@H]1O` [8-Bus-ATP], for which the Ki in assay [1] was 800 ± 200 nM. `O=C1Nc2ccccc2C1=O` [isatin]: in assay [2], the “Effect on glucose stimulated insulin secretion” value was “Neither suramin nor isatin had any significant effect”.

The values above are taken from publication PMC7734281, “Functionalized Oxoindolin Hydrazine Carbothioamide Derivatives as Highly Potent Inhibitors of Nucleoside Triphosphate Diphosphohydrolases” (Frontiers in Pharmacology, 2020).
